From ChEMBL document CHEMBL1156829 (Proc Natl Acad Sci U S A, 2008)

Tests used:
[1] = test system: Plasmodium falciparum; assay: NOVARTIS: Inhibition of Plasmodium falciparum W2 (drug-resistant) proliferation in erythrocyte-based infection assay; type: functional, organism-based; conditions: read-out: EC50
[2] = NOVARTIS: Cytotoxicity against human hepatocellular carcinoma cell line (Huh7); type: toxicity, cell-based, Huh-7; conditions: Huh7 cells (hepatocellular carcinoma cell line)
[3] = test system: Plasmodium falciparum; assay: NOVARTIS: Inhibition of Plasmodium falciparum 3D7 (drug-susceptible) proliferation in erythrocyte-based infection assay; type: functional, organism-based

| SMILES | EC50 ([1]; Plasmodium falciparum, W2) [µM] | CC50 [2] [µM] | EC50 ([3]; Plasmodium falciparum, 3D7) [µM] | EC50 [1] [µM] | EC50 [3] [µM] |
| --- | --- | --- | --- | --- | --- |
| COc1ccc(-n2cc(-c3ccccc3)[n+]3c2SCC3)cc1 | 0.647 | > 10 | 0.527 | – | – |
| CC[n+]1c(/C=C/C=C2\N(C)c3ccccc3C2(C)C)n(CCCOC(C)=O)c2ccccc21 | 0.416 | > 10 | 0.322 | – | – |
| CCCC(=O)N(CCCC(C)Nc1cc(OC)cc2cccnc12)Cc1ccc(F)cc1 (configuration not stated) | 0.0714 | > 10 | 0.385 | – | – |
| COc1ccc(C2=C(Nc3ccc(Br)c(C)c3)c3ccccc3C2=O)cc1 | 0.202 | > 100 | 0.185 | – | – |
| CC(C)CNc1nc(NCCCN(C)C)ncc1C(=O)NCc1ccccc1 | > 1.29 | > 10 | 0.316 | – | – |
| COc1ccc(OC)c(/C=C/C(=O)Nc2ccc3nc(N4CCN(C)CC4)cc(C)c3c2)c1 | > 0.873 | > 10 | > 1.25 | – | – |
| O=C(NCc1ccccc1)c1cnc(NCCCn2ccnc2)nc1Nc1ccccc1 | 0.369 | > 10 | 0.611 | – | – |
| N#C/C(=C\C=C\c1ccc([N+](=O)[O-])o1)c1nc2ccccc2[nH]1 | 0.946 | > 10 | 1.05 | – | – |
| CC(C)(C)c1ccc(C2CC3=Nc4ccccc4N(C(=O)c4ccccc4Cl)C(c4ccc(F)cc4)C3=C(O)C2)cc1 (configuration not stated) | 3.94 | > 100 | 2.63 | – | – |
| Cn1cc(C(c2cccs2)c2cn(C)c3ccccc23)c2ccccc21 | 0.61 | 52.3 | 1.37 | – | – |
| COc1ccc(-n2nc3c(c2NC(=O)/C=C\c2cc(OC)c(OC)c(OC)c2)CSC3)cc1 | 0.0857 | > 10 | > 0.752 | – | – |
| COc1ccc(S(=O)(=O)N=C2C=C(Nc3ccc(O)cc3)C(=O)c3ccccc32)cc1 | 0.109 | 2.45 | 0.185 | – | – |
| CCn1c(SCC(=O)N(c2ccccc2)c2ccccc2)nc2sc3c(c2c1=O)CCN(C)C3 | 7.34 | > 100 | > 5.08 | – | – |
| O=C(Nc1ccc(SC(F)(F)F)cc1)Nc1cccnc1N1CCC(C(F)(F)F)CC1 | 1.42 | 39.7 | 1.77 | – | – |
| Cc1cc(C)n(-c2cc(NN=Cc3cc(Br)ccc3O)nc(C)n2)n1 | 0.153 | > 100 | 0.237 | – | – |
| C[C@@H]1C[C@@H](C)C(=O)[C@@H](C(O)CC2CC(=O)NC(=O)C2)C1 (some centres not stated) | 0.366 | 2.14 | 0.153 | – | – |
| CC[n+]1c(/C=C/c2cc(Br)ccc2OC)ccc2ccccc21 | 0.202 | > 10 | 0.155 | – | – |
| COc1cccc2c1C(=O)c1c(O)c3c(c(O)c1C2=O)C[C@](O)(C(C)=O)C[C@@H]3O[C@H]1C[C@@H](N)[C@H](O)[C@H](C)O1 | 0.213 | 0.129 | 0.308 | – | – |
| COc1ccc(-c2cc3c(nn2)-c2ccccc2C3=O)cc1 | 1.64 | 65.8 | 3.84 | – | – |
| COC(=O)C1=C(C)NC2=C(C(=O)CC(c3ccc(OC)c(OC)c3)C2)C1c1cccc(Cl)c1Cl (configuration not stated) | 0.0937 | > 100 | 0.207 | – | – |
| CC(C)CN1CCN(c2nc(C#N)c3c(c2C(=S)NC2CCCCC2)CC(C)(C)OC3)CC1 | 0.319 | > 10 | 0.37 | – | – |
| CCOC(=O)c1cnc2ccc(OCC)cc2c1NCC1CCCN1CC (configuration not stated) | 1.15 | > 10 | > 0.74 | – | – |
| O=C(CSc1nc2ccccc2c(=O)n1C1CC1)Nc1cc(C(F)(F)F)ccc1Cl | 8.11 | > 100 | 0.719 | – | – |
| CCN1C(=Cc2sc3ccccc3[n+]2C)C=Cc2ccc(C)cc21 | – | > 11.8 | – | > 1.42 | 1.65 |
| Cc1cccc(CC(=O)N2CCC[C@@H]3CN(C(=O)CCc4cccnc4)CC[C@@H]32)c1 | 0.317 | > 10 | > 1.25 | – | – |

| SMILES | EC50 ([1]; Plasmodium falciparum, W2) [µM] | CC50 [2] [µM] | EC50 ([3]; Plasmodium falciparum, 3D7) [µM] | EC50 [1] [µM] | EC50 [3] [µM] |
| --- | --- | --- | --- | --- | --- |
| CCOC(=O)c1nnn(-c2nonc2N)c1-c1ccc(Cl)cc1 | 0.16 | > 100 | 0.397 | – | – |
| ClC12CC3CC(C1)CC(n1nnc4ccccc41)(C3)C2 | > 1.02 | > 10 | > 1.25 | – | – |
| Cc1ccc(OCCCCN2CCOCC2)c([N+](=O)[O-])c1 | > 1.29 | > 10 | > 0.564 | – | – |
| CC(=O)N(C1=C(N(C)C)C(=O)c2ccccc2C1=O)c1ccc(Cl)c(Cl)c1 | 0.0734 | 8.35 | 0.082 | – | – |
| O=c1c2c3c(sc2[nH]c(=S)n1C1CCCCC1)CN(Cc1ccccc1)CC3 | > 1.25 | > 10 | > 1.04 | – | – |
| Clc1cccc(-c2cn3ccnc3c(N3CCN(c4ccncc4)CC3)n2)c1 | > 0.0526 | > 10 | > 1.25 | – | – |
| CCc1c(C#N)c(N)nc2sc(C(=O)c3ccc(Br)cc3)c(N)c12 | > 12.5 | > 100 | 5.46 | – | – |
| CCOC(=O)c1c(NC(=O)C(C)Sc2nnc(CNC(=O)c3ccco3)n2-c2cccc(C(F)(F)F)c2)sc2c1CCC2 (configuration not stated) | 0.649 | > 100 | > 12.5 | – | – |
| CC1=C(C(=O)OC(C)C)C(c2ccccc2Cl)C2=C(CC(c3ccccc3)CC2=O)N1 (configuration not stated) | 0.0384 | > 64.2 | 0.297 | – | – |
| CCC(COC)NC(=O)c1cn(C2CCCCC2)cc(C(=O)NC(C)(C)C)c1=O (configuration not stated) | 1.99 | > 100 | 2.9 | – | – |
| CC[N+]1(CCOc2ccc(C34CC5CC(CC(C5)C3)C4)cc2)CCCCC1 | 0.746 | 58.2 | 1.01 | – | – |
| Cc1cc(NC(=O)c2ccc(Br)cc2)no1 | 1.91 | > 10 | > 1.25 | – | – |
| CCN(CC)CCCNC(=S)N(Cc1ccc(F)cc1)Cc1cc2cc(C)cc(C)c2[nH]c1=O | 1.2 | 22.5 | 2.76 | – | – |
| O=C(CN1CCN(C(=O)c2ccccc2)CC1)Nc1ccc(-c2nc3cc(NC(=O)CN4CCN(C(=O)c5ccccc5)CC4)ccc3o2)cc1 | 0.146 | > 100 | 0.235 | – | – |
| C=CCNC(=O)c1cc2c(=O)n3ccccc3nc2n(CCc2ccccc2)c1=N | 2.31 | > 100 | 1.53 | – | – |
| CC(C)C1=Nc2cc(C(N)=O)ccc2CN1C1CC1 | > 0.338 | > 10 | 0.0308 | – | – |
| CCOc1ccc(N(C(C)=O)C2=C(N3CCN(C)CC3)C(=O)c3ccccc3C2=O)cc1 | 0.0109 | 12.9 | 0.0787 | – | – |
| COc1cc(OC)cc(N2CCN(CCNCCOc3ccccc3)[C@@H](c3ccccc3)C2)c1 | > 0.635 | > 10 | > 1.25 | – | – |
| Cc1[nH]n(-c2ccccc2)c(=O)c1C(=O)CN(C(=O)c1ccc2c(c1)OCO2)C(C)C | > 1.25 | > 10 | > 0.469 | – | – |
| CC(=O)c1ccc(NC(=O)CSc2nnc3c4c(-c5ccc(F)cc5)csc4ncn23)cc1 | 0.0239 | > 100 | > 12.5 | – | – |
| O=C(CN1C(=O)c2ccccc2C1=O)Nc1cc(Cl)ccc1C(=O)O | 0.486 | > 10 | > 1.25 | – | – |
| COc1ccc(OC)c(C(=O)c2oc3ccccc3c2NC(=O)CCl)c1 | 1.38 | 15.5 | 10.2 | – | – |
| CCOC(=O)c1cnc2ccccc2c1Nc1ccc(OC)c(OC)c1 | 0.0846 | 85.4 | 0.0665 | – | – |
| COc1cccc(CNCCCCCCCCCCCCNCc2cccc(OC)c2O)c1O | 1.01 | 53.5 | 0.819 | – | – |
